In patent publication US20240124439A1, “Pyrido[2,3-D]Imidazole Derivatives and Their Use As Inhibitors of ITK for the Treatment of Skin Disease” (Pfizer Inc., priority 2020, published 2024):

Experiments:
[1] = target: Tropomyosin Receptor Kinase A (TRKA), NTRK1 enzyme (Homo sapiens (Human), UniProt P04629); experiment: TRKA (NTRK1) ThermoFisher Z'-LYTE enzyme assay; type: biochemical; conditions: test compound 1 uM, ATP 1 mM; arithmetic mean of count n
Method: TRKA, also known as neurotrophic tyrosine kinase receptor type 1 (NTKR1) activity was determined by measuring the effect of a test compound on the activity against the NTRK1 enzyme using the ThermoFisher Z′-LYTE Assay fluorescence-based coupled enzyme format (www.thermofisher.com/selectscreen). Test compounds were screened at a fixed concentration of 1 uM and the % inhibition was determined compared to controls at a fixed ATP concentration of 1 mM. The resulting effect value for the tested compound was compared to the assay controls to determine the % inhibition (%).

[2] = test system: activated CD4+ human T-cells (IL-2); experiment: IL-2 inhibition in supernatants from activated CD4+ human T-cells (cisbio HTRF); type: cell-based; conditions: CD3/CD28-activated CD4+ human T cells, ImmunoCult stimulation 20 to 24 hrs, geometric mean of count n
Summary of the method: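 Primary human CD4+ T cells activated with CD3/CD28 for 3 days and expanded to 7-9 days total, plated at 30,000 cells/well. Cells preincubated 15 min with compound, then stimulated with ImmunoCult (1:50 final) for 20-24 h at 37° C. Supernatant IL-2 measured by HTRF (665/615 nm); IC50 from four-parameter logistic fit.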

[3] = target: IL-2-Inducible T-Cell Kinase (ITK) (Homo sapiens (Human), UniProt Q08881); experiment: ITK enzyme assay (IL-2-inducible T-cell kinase activity); type: biochemical; conditions: geometric mean of count n
Sequence of IL-2-Inducible T-Cell Kinase (ITK) (Q08881 whole entry): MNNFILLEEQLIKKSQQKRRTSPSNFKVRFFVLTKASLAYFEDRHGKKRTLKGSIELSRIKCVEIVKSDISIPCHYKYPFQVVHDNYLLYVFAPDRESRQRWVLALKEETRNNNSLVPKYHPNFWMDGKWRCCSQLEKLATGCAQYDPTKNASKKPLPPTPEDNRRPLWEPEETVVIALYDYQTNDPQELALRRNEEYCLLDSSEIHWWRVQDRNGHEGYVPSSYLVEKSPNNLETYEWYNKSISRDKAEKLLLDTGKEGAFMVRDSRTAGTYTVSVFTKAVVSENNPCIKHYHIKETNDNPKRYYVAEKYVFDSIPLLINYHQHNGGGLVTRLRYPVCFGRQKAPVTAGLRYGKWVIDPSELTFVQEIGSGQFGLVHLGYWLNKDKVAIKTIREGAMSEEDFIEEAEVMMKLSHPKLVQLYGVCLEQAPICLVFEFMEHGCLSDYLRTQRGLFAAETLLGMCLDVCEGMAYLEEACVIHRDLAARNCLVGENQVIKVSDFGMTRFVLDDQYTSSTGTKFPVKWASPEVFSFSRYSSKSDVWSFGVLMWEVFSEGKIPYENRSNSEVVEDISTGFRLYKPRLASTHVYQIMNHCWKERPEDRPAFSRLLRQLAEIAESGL
Summary of the method: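 Full-length N-Flag/C-His human ITK, pre-incubated 30 min at RT with compound. Reaction in HEPES pH 7.5 buffer with MgCl2, glutathione, gelatin and Brij-35, started with BTK peptide substrate, 60 min at RT. EDTA stop, PT66/APC TR-FRET detection overnight; IC50 fitted by four-parameter logistic.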

Sequence of Tropomyosin Receptor Kinase A (TRKA), NTRK1 enzyme (P04629 33-796): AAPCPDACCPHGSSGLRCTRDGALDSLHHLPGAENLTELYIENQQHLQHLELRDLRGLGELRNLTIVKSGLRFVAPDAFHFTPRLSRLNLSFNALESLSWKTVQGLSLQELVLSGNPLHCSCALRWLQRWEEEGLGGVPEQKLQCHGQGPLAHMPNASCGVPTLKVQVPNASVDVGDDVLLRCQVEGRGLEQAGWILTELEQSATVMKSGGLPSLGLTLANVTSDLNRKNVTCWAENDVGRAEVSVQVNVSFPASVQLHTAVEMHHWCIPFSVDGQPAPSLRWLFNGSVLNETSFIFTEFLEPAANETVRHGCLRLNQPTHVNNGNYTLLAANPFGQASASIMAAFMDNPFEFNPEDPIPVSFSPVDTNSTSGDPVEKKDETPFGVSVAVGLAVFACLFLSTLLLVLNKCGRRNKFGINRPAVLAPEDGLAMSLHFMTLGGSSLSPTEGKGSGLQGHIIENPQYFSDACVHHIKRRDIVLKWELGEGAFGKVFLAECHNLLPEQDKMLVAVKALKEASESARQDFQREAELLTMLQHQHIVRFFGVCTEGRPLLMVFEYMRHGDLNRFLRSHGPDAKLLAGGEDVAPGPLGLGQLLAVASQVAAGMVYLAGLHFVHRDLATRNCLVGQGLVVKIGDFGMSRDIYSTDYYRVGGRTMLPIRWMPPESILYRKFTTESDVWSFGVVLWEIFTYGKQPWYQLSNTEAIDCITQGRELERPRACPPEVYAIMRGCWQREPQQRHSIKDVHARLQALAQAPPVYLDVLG

Row | Structure (SMILES) | TRKA % inhibition [1] [%] | IC50 [2] [nM] | IC50 [3] [nM] | inhibition at 1 µM [1] [%] | IC50 ([2]; T-cell) [nM]
1 | CCN(C(=O)[C@H](C)C1CCOCC1)c1cnc2[nH]c(-c3n[nH]c4c3C[C@@H]3C[C@]3(C)C4)nc2c1 [Example 19, (R)-N-Ethyl-N-(2-((4aS,5aR)-5a-methyl-1,4,4a,5,5a,6-hexahydrocyclopropa[f]indazol-3-yl)-3H-imidazo[4,5-b]pyridin-6-yl)-2-(tetrahydro-2H-pyran-4-yl)propenamide] | 98 | 153 | 17 | – | –
2 | CCN(C(=O)[C@@H](C)N1CCOCC1)c1cnc2[nH]c(-c3n[nH]c4c3CCC(C)(C)C4)nc2c1 [Example 22, (R)-N-(2-(6,6-Dimethyl-4,5,6,7-tetrahydro-1H-indazol-3-yl)-3H-imidazo[4,5-b]pyridin-6-yl)-N-ethyl-2-morpholinopropanamide] | – | – | 85 | 94 | 471
3 | C[C@@H](C(=O)N(C)c1cnc2[nH]c(-c3n[nH]c4c3C[C@@H]3C(F)(F)[C@]3(C)C4)nc2c1)N1CCOCC1 [Example 23, (S)-N-(2-((4aS,5aR)-5,5-Difluoro-5a-methyl-1,4,4a,5,5a,6-hexahydrocyclopropa[f]indazol-3-yl)-3H-imidazo[4,5-b]pyridin-6-yl)-N-methyl-2-morpholinopropanamide] | – | – | 1330 | 54 | 1850
4 | C[C@@H](C(=O)N(C)c1cnc2[nH]c(-c3n[nH]c4c3C[C@H]3C(F)(F)[C@@]3(C)C4)nc2c1)N1CCOCC1 [Example 24, (S)-N-(2-((4aR,5aS)-5,5-Difluoro-5a-methyl-1,4,4a,5,5a,6-hexahydrocyclopropa[f]indazol-3-yl)-3H-imidazo[4,5-b]pyridin-6-yl)-N-methyl-2-morpholinopropanamide] | – | – | 3 | 95 | 34
5 | C[C@@H](C(=O)N(C)c1cnc2[nH]c(-c3n[nH]c4c3C[C@@H]3C[C@]3(C)C4)nc2c1)N1CCOCC1 [Example 28, (S)-N-Methyl-N-(2-((4aS,5aR)-5a-methyl-1,4,4a,5,5a,6-hexahydrocyclopropa[f]indazol-3-yl)-3H-imidazo[4,5-b]pyridin-6-yl)-2-morpholinopropanamide] | – | – | 23 | 91 | 121
6 | C[C@@H](C(=O)N(C)c1cnc2[nH]c(-c3n[nH]c4c3C[C@H]3C[C@@]3(C)C4)nc2c1)N1CCOCC1 [Example 29, (2S)-N-Methyl-N-(2-(5a-methyl-1,4,4a,5,5a,6-hexahydrocyclopropa[f]indazol-3-yl)-3H-imidazo[4,5-b]pyridin-6-yl)-2-morpholinopropanamide] | – | – | 2850 | 69 | 2530
7 | CCN(C(=O)[C@H](C)N1CCOCC1)c1cnc2[nH]c(-c3n[nH]c4c3C[C@@H]3C(F)(F)[C@]3(C)C4)nc2c1 [Example 30, (S)-N-(2-((4aS,5aR)-5,5-Difluoro-5a-methyl-1,4,4a,5,5a,6-hexahydrocyclopropa[f]indazol-3-yl)-3H-imidazo[4,5-b]pyridin-6-yl)-N-ethyl-2-morpholinopropanamide] | – | – | 8 | 97 | 79
8 | C[C@@H](C(=O)N(CCO)c1cnc2[nH]c(-c3n[nH]c4c3C[C@@H]3C[C@]3(C)C4)nc2c1)C1CCOCC1 [Example 31, (R)-N-(2-Hydroxyethyl)-N-(2-((4aS,5aR)-5a-methyl-1,4,4a,5,5a,6-hexahydrocyclopropa[f]indazol-3-yl)-3H-imidazo[4,5-b]pyridin-6-yl)-2-(tetrahydro-2H-pyran-4-yl)propenamide] | – | – | 25 | 95 | 415
9 | C[C@@H](C(=O)N(C)c1cnc2[nH]c(-c3n[nH]c4c3CCC(C)(C)C4)nc2c1)C1CCOCC1 [Example 32, (R)-N-(2-(6,6-Dimethyl-4,5,6,7-tetrahydro-1H-indazol-3-yl)-3H-imidazo[4,5-b]pyridin-6-yl)-N-methyl-2-(tetrahydro-2H-pyran-4-yl)propenamide] | – | – | 17 | 94 | 167
10 | COc1nc2[nH]c(-c3n[nH]c4c3C[C@@H]3C[C@]3(C)C4)nc2cc1N(C)C(=O)[C@H](C)N1CCOCC1 [Example 36, (S)-N-(5-Methoxy-2-((4aS,5aR)-5a-methyl-1,4,4a,5,5a,6-hexahydrocyclopropa[f]indazol-3-yl)-3H-imidazo[4,5-b]pyridin-6-yl)-N-methyl-2-morpholinopropanamide] | – | – | 47 | 95 | 172
11 | COCCOc1nc2[nH]c(-c3n[nH]c4c3C[C@@H]3C[C@]3(C)C4)nc2cc1N(C)C(=O)[C@H](C)N1CCOCC1 [Example 40, (S)-N-(5-(2-Methoxyethoxy)-2-((4aS,5aR)-5a-methyl-1,4,4a,5,5a,6-hexahydrocyclopropa[f]indazol-3-yl)-3H-imidazo[4,5-b]pyridin-6-yl)-N-methyl-2-morpholinopropanamide] | – | – | 28 | 97 | 182
12 | CN(C(=O)CC1CCCCC1)c1cnc2nc(-c3n[nH]c4c3C[C@@H]3C[C@]3(C)C4)[nH]c2c1 [Example 47, 2-Cyclohexyl-N-methyl-N-(2-((4aS,5aR)-5a-methyl-1,4,4a,5,5a,6-hexahydrocyclopropa[f]indazol-3-yl)-1H-imidazo[4,5-b]pyridin-6-yl)acetamide] | – | – | 44 | 95 | 189
13 | CN(C(=O)CN1CCCOC1=O)c1cnc2nc(-c3n[nH]c4c3C[C@@H]3C[C@]3(C)C4)[nH]c2c1 [Example 57, N-Methyl-N-(2-((4aS,5aR)-5a-methyl-1,4,4a,5,5a,6-hexahydrocyclopropa[f]indazol-3-yl)-1H-imidazo[4,5-b]pyridin-6-yl)-2-(2-oxo-1,3-oxazinan-3-yl)acetamide] | – | – | 36 | 106 | 974
14 | CN(C(=O)CN1CCOCC1)c1cnc2nc(-c3n[nH]c4c3C[C@@H]3C[C@]3(C)C4)[nH]c2c1 [Example 58, N-Methyl-N-(2-((4aS,5aR)-5a-methyl-1,4,4a,5,5a,6-hexahydrocyclopropa[f]indazol-3-yl)-1H-imidazo[4,5-b]pyridin-6-yl)-2-morpholinoacetamide] | – | – | 102 | 108 | 380
15 | CN(C(=O)C1(F)CCOCC1)c1cnc2nc(-c3n[nH]c4c3C[C@@H]3C[C@]3(C)C4)[nH]c2c1 [Example 61, 4-Fluoro-N-methyl-N-(2-((4aS,5aR)-5a-methyl-1,4,4a,5,5a,6-hexahydrocyclopropa[f]indazol-3-yl)-1H-imidazo[4,5-b]pyridin-6-yl)tetrahydro-2H-pyran-4-carboxamide] | – | – | 23 | 95 | 88
16 | CC(=O)N(C)CC(=O)N(C)c1cnc2nc(-c3n[nH]c4c3C[C@@H]3C[C@]3(C)C4)[nH]c2c1 [Example 80, N-Methyl-N-(2-((4aS,5aR)-5a-methyl-1,4,4a,5,5a,6-hexahydrocyclopropa[f]indazol-3-yl)-1H-imidazo[4,5-b]pyridin-6-yl)-2-(N-methylacetamido)acetamide] | – | – | 54 | 96 | 1250
17 | CN(c1cnc2nc(-c3n[nH]c4c3C[C@@H]3C[C@]3(C)C4)[nH]c2c1)C(=O)[C@H]1C[C@H](C)C1 [Example 84, (1r,3S)-N,3-Dimethyl-N-(2-((4aS,5aR)-5a-methyl-1,4,4a,5,5a,6-hexahydrocyclopropa[f]indazol-3-yl)-1H-imidazo[4,5-b]pyridin-6-yl)cyclobutane-1-carboxamide] | – | – | 31 | 96 | 288
